Assay results published in ChEMBL document CHEMBL2401713, “Discovery of bufadienolides as a novel class of ClC-3 chloride channel activators with antitumor activities” (J Med Chem, 2013).
pIC50: −log10 of the molar value. Active and inactive are the calls of the source. The calls are words filed in the database; no cut-off is given here.

Legend:
[1] = Cytotoxicity against human CNE1 cells assessed as growth inhibition after 48 hrs by MTT assay; assay type: functional, cell-based; conditions: CNE
HepG2 [2] = experiment: Cytotoxicity against human HepG2 cells assessed as growth inhibition after 48 hrs by MTT assay; assay type: functional, cell-based; conditions: HepG2, 48 h
HepG2 [3] = experiment: Cytotoxicity against adriamycin-resistant human HepG2 cells assessed as growth inhibition after 48 hrs by MTT assay; assay type: functional, cell-based; conditions: HepG2, 48 h
[4] = Cytotoxicity against human CNE2Z cells assessed as growth inhibition after 48 hrs by MTT assay; assay type: functional, cell-based
CCRF S-180 = experiment: Cytotoxicity against mouse S180 cells expressing mutated alpha-1 Na+/K+-ATPase assessed as growth inhibition after 48 hrs by MTT assay; assay type: functional, cell-based; conditions: CCRF S-180, 48 h
H22 = experiment: Cytotoxicity against mouse H22 cells expressing mutated alpha-1 Na+/K+-ATPase assessed as growth inhibition after 48 hrs by MTT assay; assay type: functional, cell-based; conditions: H22, 48 h
[5] = Cell cycle arrest in human CNE2Z cells assessed as accumulation at sub-G1 phase at 1 uM after 24 hrs by propidium iodide staining-based flow cytometric analysis in presence of ClC-3 siRNA (reference value: 1.3%); assay type: functional
CNE2Z [6] = experiment: Induction of apoptosis in human CNE2Z cells assessed as induction of PARP cleavage at 1 uM after 24 hrs by annexin V-FITC/propidium iodide staining-based flow cytometric analysis in presence of tamoxifen, NPPB, ClC-3 siRNA; assay type: functional, cell-based
[7] = Cell cycle arrest in human CNE2Z cells assessed as accumulation at sub-G1 phase at 1 uM after 24 hrs by propidium iodide staining-based flow cytometric analysis in presence of tamoxifen (reference value: 1.5%); assay type: functional
[8] = Cell cycle arrest in human CNE2Z cells assessed as accumulation at sub-G1 phase at 10 uM after 24 hrs by propidium iodide staining-based flow cytometric analysis in presence of tamoxifen (reference value: 1.5%); assay type: functional
[9] = Cell cycle arrest in human CNE2Z cells assessed as accumulation at sub-G1 phase at 5 uM after 24 hrs by propidium iodide staining-based flow cytometric analysis (reference value: 1.1%); assay type: functional
[10] = Cell cycle arrest in human CNE2Z cells assessed as accumulation at sub-G1 phase at 10 uM after 24 hrs by propidium iodide staining-based flow cytometric analysis in presence of ClC-3 siRNA (reference value: 1.3%); assay type: functional
[11] = Cell cycle arrest in human CNE2Z cells assessed as accumulation at sub-G1 phase at 1 uM after 24 hrs by propidium iodide staining-based flow cytometric analysis (reference value: 1.1%); assay type: functional
[12] = Cell cycle arrest in human CNE2Z cells assessed as accumulation at sub-G1 phase at 1 uM after 24 hrs by propidium iodide staining-based flow cytometric analysis in presence of NPPB (reference value: 2%); assay type: functional
[13] = Upregulation of ClC-3 protein expression in human CNE2Z cells after 24 hrs by Western blot analysis; assay type: functional, cell-based
[14] = Cell cycle arrest in human CNE2Z cells assessed as accumulation at sub-G1 phase at 5 uM after 24 hrs by propidium iodide staining-based flow cytometric analysis in presence of tamoxifen (reference value: 1.5%); assay type: functional
[15] = Cell cycle arrest in human CNE2Z cells assessed as accumulation at sub-G1 phase at 10 uM after 24 hrs by propidium iodide staining-based flow cytometric analysis (reference value: 1.1%); assay type: functional
CNE2Z [16] = experiment: Induction of apoptosis in human CNE2Z cells assessed as increase in apoptotic cell level at 1 to 10 uM after 24 hrs by annexin V-FITC/propidium iodide staining-based flow cytometric analysis in presence of tamoxifen, NPPB, ClC-3 siRNA; assay type: functional
[17] = Cytotoxicity against SV40-transformed human NP69 cells assessed as cell viability after 48 hrs by MTT assay; assay type: cell-based; conditions: NP69, 48 h
CNE2Z [18] = experiment: Induction of apoptosis in human CNE2Z cells assessed as increase in apoptotic cell level at 1 to 10 uM after 24 hrs by annexin V-FITC/propidium iodide staining-based flow cytometric analysis; assay type: functional
[19] = Cell cycle arrest in human CNE2Z cells assessed as accumulation at sub-G1 phase at 5 uM after 24 hrs by propidium iodide staining-based flow cytometric analysis in presence of ClC-3 siRNA (reference value: 1.3%); assay type: functional
CNE2Z [20] = experiment: Induction of apoptosis in human CNE2Z cells assessed as activation of caspase-3 at 1 uM after 24 hrs by annexin V-FITC/propidium iodide staining-based flow cytometric analysis; assay type: functional, cell-based
CNE2Z [21] = experiment: Induction of apoptosis in human CNE2Z cells assessed as induction of PARP cleavage at 1 uM after 24 hrs by annexin V-FITC/propidium iodide staining-based flow cytometric analysis; assay type: functional, cell-based
[22] = Cell cycle arrest in human CNE2Z cells assessed as accumulation at sub-G1 phase at 5 uM after 24 hrs by propidium iodide staining-based flow cytometric analysis in presence of NPPB (reference value: 2%); assay type: functional
CNE2Z [23] = experiment: Induction of apoptosis in human CNE2Z cells assessed as expression of caspase-3 at 1 uM after 24 hrs by annexin V-FITC/propidium iodide staining-based flow cytometric analysis in presence of tamoxifen, NPPB, ClC-3 siRNA; assay type: functional, cell-based
[24] = Cell cycle arrest in human CNE2Z cells assessed as accumulation at sub-G1 phase at 10 uM after 24 hrs by propidium iodide staining-based flow cytometric analysis in presence of NPPB (reference value: 2%); assay type: functional
[25] = biological target: T1, H(+)/Cl(-) exchange transporter 3 (Homo sapiens) (UniProt P51790); experiment: Activation of ClC-3 in human CNE2Z cells assessed as increase in chloride current density at +80mV holding potential at 1 uM by whole-cell patch clamp method relative to vehicle-treated control; assay type: cell-based
T1 sequence (whole entry): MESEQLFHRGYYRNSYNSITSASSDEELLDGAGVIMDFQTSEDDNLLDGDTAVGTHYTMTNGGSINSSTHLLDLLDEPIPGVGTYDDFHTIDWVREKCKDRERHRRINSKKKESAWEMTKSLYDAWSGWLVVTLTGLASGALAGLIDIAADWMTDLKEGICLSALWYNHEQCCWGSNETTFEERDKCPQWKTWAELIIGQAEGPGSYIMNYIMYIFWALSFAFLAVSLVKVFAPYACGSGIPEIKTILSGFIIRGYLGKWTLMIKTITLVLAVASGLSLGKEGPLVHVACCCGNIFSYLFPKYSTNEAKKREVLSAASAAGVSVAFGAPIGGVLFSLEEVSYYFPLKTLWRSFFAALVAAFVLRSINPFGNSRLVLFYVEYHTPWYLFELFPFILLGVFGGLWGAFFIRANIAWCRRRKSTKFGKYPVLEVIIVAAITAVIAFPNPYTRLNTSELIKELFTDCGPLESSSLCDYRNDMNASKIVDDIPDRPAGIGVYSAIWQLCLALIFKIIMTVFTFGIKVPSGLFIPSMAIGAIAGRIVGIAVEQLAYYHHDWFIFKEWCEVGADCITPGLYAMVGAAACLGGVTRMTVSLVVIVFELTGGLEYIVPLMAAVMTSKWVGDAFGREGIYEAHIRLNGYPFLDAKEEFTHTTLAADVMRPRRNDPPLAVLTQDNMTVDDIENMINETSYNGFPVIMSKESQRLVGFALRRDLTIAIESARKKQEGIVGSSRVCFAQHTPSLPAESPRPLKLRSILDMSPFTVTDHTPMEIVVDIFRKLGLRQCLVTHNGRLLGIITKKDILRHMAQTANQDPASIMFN

[26] = Cell cycle arrest in human CNE2Z cells assessed as accumulation at sub-G1 phase at 50 uM after 24 hrs by propidium iodide staining-based flow cytometric analysis in presence of tamoxifen (reference value: 1.5%); assay type: functional
CNE2Z [27] = experiment: Induction of apoptosis in human CNE2Z cells assessed as activation of caspase-8 at 1 to 50 uM after 24 hrs by luminometric analysis; assay type: functional, cell-based
[28] = Cell cycle arrest in human CNE2Z cells assessed as accumulation at sub-G1 phase at 50 uM after 24 hrs by propidium iodide staining-based flow cytometric analysis (reference value: 1.1%); assay type: functional
[29] = Cell cycle arrest in human CNE2Z cells assessed as accumulation at sub-G1 phase at 50 uM after 24 hrs by propidium iodide staining-based flow cytometric analysis in presence of NPPB (reference value: 2%); assay type: functional
[30] = biological target: T1, H(+)/Cl(-) exchange transporter 3 (Homo sapiens); experiment: Activation of ClC-3 in human CNE2Z cells assessed as increase in chloride current in outward and inward direction at +80mV holding potential at 1 uM by whole-cell patch clamp method; assay type: cell-based
CNE2Z [31] = experiment: Induction of apoptosis in human CNE2Z cells assessed as activation of caspase-3/7 at 1 to 50 uM after 24 hrs by luminometric analysis; assay type: functional, cell-based
[32] = Cell cycle arrest in human CNE2Z cells assessed as accumulation at sub-G1 phase at 50 uM after 24 hrs by propidium iodide staining-based flow cytometric analysis in presence of ClC-3 siRNA (reference value: 1.3%); assay type: functional

SMILES	pIC50 [1]	pIC50 (HepG2 [2])	pIC50 (HepG2 [3])	pIC50 [4]	pIC50 (CCRF S-180)	pIC50 (H22)	Activity [25]	other results
C[C@]12CC[C@H]3[C@@H](CC[C@@H]4C[C@@H](O)CC[C@@]43C=O)[C@]13O[C@@H]3C[C@@H]2c1ccc(=O)oc1	4.82	< 4.00	< 4.00	4.58	< 4.30	< 4.30	–	–
C[C@]12CC[C@H](O)C[C@H]1CC[C@@H]1[C@@H]2CC[C@]2(C)[C@@H](c3ccc(=O)oc3)CC[C@]12O [BUFALIN]	6.55	6.23	6.46	6.34	< 4.30	< 4.30	–	Activity [5]: 21.5%; Activity (CNE2Z [6]): inactive; Activity [7]: 26.5%; Activity [8]: 43.9%; Activity [9]: 50.5%; Activity [10]: 40.9%; Activity [11]: 39.1%; Activity [12]: 23.1%; Activity [13]: Dose-dependent effect; Activity [14]: 36.9%; Activity [15]: 59.1%; Activity (CNE2Z [16]): inactive; pIC50 [17]: < 4.60; Activity (CNE2Z [18]): 35.2%; Activity [19]: 31.7%; Activity (CNE2Z [20]): Active; Activity (CNE2Z [21]): Active; Activity [22]: 33.9%; Activity (CNE2Z [23]): inactive; Activity [24]: 42.7%
CC(=O)O[C@H]1[C@H]2O[C@]23[C@@H]2CC[C@@H]4C[C@@H](O)CC[C@]4(C)[C@H]2CC[C@]3(C)[C@H]1c1ccc(=O)oc1 [CINOBUFAGIN]	6.51	5.63	5.77	6.41	< 4.30	< 4.30	–	–
CC(=O)O[C@@H]1C[C@H](c2ccc(=O)oc2)[C@@]2(C)CC[C@H]3[C@@H](CC[C@@H]4C[C@@H](O)CC[C@@]43C)[C@@]12O	< 4.00	< 4.00	< 4.00	< 4.00	< 4.30	< 4.30	inactive	Activity [5]: 3%; Activity [7]: 2.2%; Activity [9]: 3.1%; Activity [26]: 3.9%; Activity [11]: 1.3%; Activity [12]: 2.8%; Activity [13]: inactive; Activity [14]: 3.5%; Activity (CNE2Z [27]): inactive; Activity [28]: 4%; Activity [29]: 3.8%; Activity [30]: inactive; Activity (CNE2Z [18]): inactive; Activity [19]: 3.3%; Activity [22]: 3.5%; Activity (CNE2Z [31]): inactive; Activity [32]: 3.4%
C[C@]12CC[C@H](O)C[C@H]1CC[C@@H]1[C@@H]2CC[C@]2(C)[C@@H](c3ccc(=O)oc3)[C@@H](O)C[C@]12O [DESACETYLBUFOTALIN]	5.31	5.45	5.59	5.75	< 4.30	< 4.30	Active	–
C[C@]12CC[C@H](OC(=O)CCCCCCC(=O)O)C[C@H]1CC[C@@H]1[C@@H]2CC[C@]2(C)[C@@H](c3ccc(=O)oc3)CC[C@]12O	5.30	< 4.00	< 4.00	5.13	< 4.30	< 4.30	–	–
COC(=O)CCCCCCC(=O)O[C@H]1CC[C@@]2(C)[C@H](CC[C@@H]3[C@@H]2CC[C@]2(C)[C@@H](c4ccc(=O)oc4)CC[C@]32O)C1	5.76	5.50	5.62	5.54	< 4.30	< 4.30	Active	–
